This is an account of results in patent publication US20190077774A1, “PEROXISOME PROLIFERATOR-ACTIVATED RECEPTOR AGONISTS” (City of Hope, priority 2017, published 2019).

The structures appear in SMILES notation. “Also recorded” adds a separate entry of the source.

Data set [1] concerns the target T1, PPARα (Homo sapiens, UniProt Q07869).
T1 construct: expressed in transfected cells; host or cells: CV-1 (monkey kidney) cells
T1 sequence (Q07869 1-468): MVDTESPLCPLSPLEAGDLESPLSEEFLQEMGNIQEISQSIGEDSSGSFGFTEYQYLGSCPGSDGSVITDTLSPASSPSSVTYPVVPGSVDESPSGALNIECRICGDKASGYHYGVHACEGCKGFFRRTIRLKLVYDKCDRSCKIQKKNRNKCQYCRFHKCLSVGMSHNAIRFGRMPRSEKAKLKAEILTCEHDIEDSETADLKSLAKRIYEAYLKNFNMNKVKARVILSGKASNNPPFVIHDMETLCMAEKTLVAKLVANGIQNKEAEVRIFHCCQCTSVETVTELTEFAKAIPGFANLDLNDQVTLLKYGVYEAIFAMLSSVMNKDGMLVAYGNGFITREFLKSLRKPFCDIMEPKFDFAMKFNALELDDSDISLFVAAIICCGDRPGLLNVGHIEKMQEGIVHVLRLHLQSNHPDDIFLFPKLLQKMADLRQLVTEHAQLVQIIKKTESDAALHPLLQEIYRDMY
T1 sequence (P19793 1-462 partner): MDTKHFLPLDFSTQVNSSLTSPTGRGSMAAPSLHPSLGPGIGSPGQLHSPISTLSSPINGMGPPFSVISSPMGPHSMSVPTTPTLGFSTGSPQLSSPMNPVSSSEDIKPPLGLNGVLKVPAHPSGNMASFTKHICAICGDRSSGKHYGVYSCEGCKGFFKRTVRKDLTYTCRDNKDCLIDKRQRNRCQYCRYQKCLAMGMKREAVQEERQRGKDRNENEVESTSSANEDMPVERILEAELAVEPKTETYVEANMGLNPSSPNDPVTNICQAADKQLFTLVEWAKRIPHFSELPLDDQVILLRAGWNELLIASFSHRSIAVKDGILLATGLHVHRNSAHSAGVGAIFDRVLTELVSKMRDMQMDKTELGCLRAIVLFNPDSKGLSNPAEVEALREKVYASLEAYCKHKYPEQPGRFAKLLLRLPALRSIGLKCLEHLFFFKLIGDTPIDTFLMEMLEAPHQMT
The experiment in a line: PPRE-luc reporter assay in CV-1 cells co-transfected with PPARα and RXRα expression plasmids. The data set is classed as cell-based. To be noted: luciferase reporter. The method, then: In brief, monkey kidney CV-1 cells were co-transfected with appropriate reporter constructs and expression vectors. The fold activation of the reporter construct by ligand was determined at several concentrations of selected compounds (FIG. 4).^20 To examine the effect of DY-compound on PPARα-mediated PPRE transcriptional activation, a PPRE-luc reporter assay was conducted using a PPRE-driven luciferase reporter-gene (PPRE-luc) plasmid and PPARα and RXRα gene expression plasmids in CV-1 cells.
On the technique in general: In a reporter assay the amount or activity of a reporter protein is the signal.

Data set [2] is described as follows: Body weight and food intake of treated mice. The data set is classed as in vivo. The method, then:
Next, we would like to investigate the therapeutic potential of DY121 to see if it could be candidate for treating NAFLD/NASH. Note that the pathogenesis of NASH has not yet been fully elucidated so far; however, the ‘two-hit’ theory is widely accepted. The first hit is the accumulation of fatty acids in the liver to cause steatosis. […] The newly produced PPARα agonist DY121 and its analogs, as well as WY100=WY14643 and GW3 (GW7647), were evaluated in C57Bl/6J female mice for their ability to alter serum triglyceride, liver gene expression, and glucose. Fibric acid derivatives (100 mg/kg/day) was used as a control, WY100 (WY14, 643, 100 mg/kg/day), GW3 (GW7647-positive control, 3 mg/kg/day), DY121 (˜3 mg/kg/day), respectively. DY series compounds and controls administered once to C57Bl/6J female mice at 8 weeks of age. Mice were treated at 3 mg/kg for all compounds except WY14643 (100 mg/kg).

For data set [3], the system named is C57Bl/6J female mice. The experiment in a line: Serum triglyceride and lipid effects in C57Bl/6J female mice. The data set is classed as in vivo.

Consider `COc1ccc(Cn2c(CCCc3ccc(OC(C)(C)C(=O)O)cc3)nn(Cc3ccc(C)cc3)c2=O)cc1` [10a, 2-(4-{3-[4-(4-Methoxy-benzyl)-1-(4-methyl-benzyl)-5-oxo-4,5-dihydro-1H[1,2,4]triazol-3-yl]-propyl}-phenoxy)-2-methyl-propionic acid], for which the “PPARα activation / PPRE-luc activity” value in data set [1] was “highest PPARα activation”. Also, the body weight result in data set [2] (24 h vs 72 h (FIG. 8)) was “unaffected”. Moreover, in data set [2] (vs control group), the “body weights and food intake” value is given as “no significant differences”. In data set [3] (24 h vs 72 h, wild type and PPARα-knockout mice (FIG. 8)), the “triglycerides, time course” value is reported as “maintained over 72 h in wild type but not PPARα-knockout mice”. In data set [3] (7 day period (FIG. 10)), the “triglycerides, chronic treatment” value was “suppressed triglycerides over the entire 7 day period”. For the same compound, the “dose-response of triglyceride suppression” value in data set [3] (FIG. 7, listed as DY121) is on record as “Dose-response suppression; also recorded: dose-dependent anti-dyslipidemic effects”. For the same compound, the “FFA and glycerol time course” value in data set [3] (FIG. 14 and 15) is recorded as “early increase (lipolytic burst) followed by decline”.
